Reference: the kinase profiling compilation of Christmann-Franck et al. (2016)

Tests used:
Assay in all cases: KINOMEscan competition binding
Settings in all cases: compound 10.0 µM
[1] = target: CSK (human) (UniProt P41240)
[2] = target: MAPK7 (human) (UniProt Q13164)
[3] = target: PRKCQ (human) (UniProt Q04759)
[4] = target: MAPKAPK5 (human) (UniProt Q8IW41)
[5] = target: CDK4 CCND1 (human) (UniProt P11802+P24385)
[6] = target: TNNI3K (human) (UniProt Q59H18)
[7] = target: PRKD3 (human) (UniProt O94806)
[8] = system: BMX (human), P51813 [V600E]
[9] = target: PRKX (human) (UniProt P51817)
[10] = target: LATS2 (human) (UniProt Q9NRM7)
Chain of LATS2 (human) (Q9NRM7 whole entry, looked up): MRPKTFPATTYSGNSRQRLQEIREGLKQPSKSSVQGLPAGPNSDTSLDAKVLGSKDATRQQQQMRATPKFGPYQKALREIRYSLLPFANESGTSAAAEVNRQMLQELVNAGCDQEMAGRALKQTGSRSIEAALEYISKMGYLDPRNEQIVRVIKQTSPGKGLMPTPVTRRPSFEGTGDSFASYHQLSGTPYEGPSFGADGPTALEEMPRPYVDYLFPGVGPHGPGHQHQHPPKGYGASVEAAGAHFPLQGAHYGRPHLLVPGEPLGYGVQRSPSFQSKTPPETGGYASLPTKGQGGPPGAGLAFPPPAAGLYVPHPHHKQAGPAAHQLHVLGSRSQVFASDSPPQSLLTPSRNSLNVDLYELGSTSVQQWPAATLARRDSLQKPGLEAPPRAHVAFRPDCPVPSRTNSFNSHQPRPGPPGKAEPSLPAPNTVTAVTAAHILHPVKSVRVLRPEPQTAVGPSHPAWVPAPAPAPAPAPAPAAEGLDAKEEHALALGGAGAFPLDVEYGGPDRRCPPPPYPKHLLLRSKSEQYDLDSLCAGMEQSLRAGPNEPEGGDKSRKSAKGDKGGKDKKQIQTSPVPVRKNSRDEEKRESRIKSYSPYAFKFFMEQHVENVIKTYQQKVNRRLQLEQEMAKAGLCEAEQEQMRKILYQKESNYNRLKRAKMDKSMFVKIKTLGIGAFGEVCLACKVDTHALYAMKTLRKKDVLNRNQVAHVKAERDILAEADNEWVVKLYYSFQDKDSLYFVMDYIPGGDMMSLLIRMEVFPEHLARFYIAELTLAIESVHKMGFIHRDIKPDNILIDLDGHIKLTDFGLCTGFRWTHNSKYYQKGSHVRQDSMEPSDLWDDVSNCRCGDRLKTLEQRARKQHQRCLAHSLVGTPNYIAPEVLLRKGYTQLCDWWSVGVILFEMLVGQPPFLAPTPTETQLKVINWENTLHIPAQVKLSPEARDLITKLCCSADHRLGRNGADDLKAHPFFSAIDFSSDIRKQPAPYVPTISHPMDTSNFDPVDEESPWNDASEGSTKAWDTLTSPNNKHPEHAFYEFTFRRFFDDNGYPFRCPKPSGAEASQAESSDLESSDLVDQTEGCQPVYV

[11] = target: NUAK1 (human) (UniProt O60285)
[12] = target: PRKCD (human) (UniProt Q05655)
[13] = target: MAP3K11 (human) (UniProt Q16584)
[14] = target: PRKCE (human) (UniProt Q02156)
[15] = target: IRAK1 (human) (UniProt P51617)
[16] = target: MAST1 (human) (UniProt Q9Y2H9)
[17] = target: SRPK1 (human) (UniProt Q96SB4)
[18] = target: TNK1 (human) (UniProt Q13470)
[19] = target: LATS1 (human) (UniProt O95835)
[20] = target: AKT2 (human) (UniProt P31751)
[21] = target: DAPK2 (human) (UniProt Q9UIK4)
Chain of DAPK2 (human) (Q9UIK4 whole entry, looked up): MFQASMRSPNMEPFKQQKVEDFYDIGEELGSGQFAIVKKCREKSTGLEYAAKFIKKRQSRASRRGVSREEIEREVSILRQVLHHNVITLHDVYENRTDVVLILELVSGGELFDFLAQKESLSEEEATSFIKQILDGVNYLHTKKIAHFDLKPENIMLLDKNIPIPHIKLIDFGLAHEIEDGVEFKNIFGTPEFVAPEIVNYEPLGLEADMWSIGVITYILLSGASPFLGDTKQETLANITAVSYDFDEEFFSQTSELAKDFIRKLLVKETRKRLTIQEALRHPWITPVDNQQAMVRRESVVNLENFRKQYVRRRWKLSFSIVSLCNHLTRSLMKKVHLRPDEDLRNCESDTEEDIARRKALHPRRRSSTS

[22] = target: ACVR2A (human) (UniProt P27037)
[23] = target: SRMS (human) (UniProt Q9H3Y6)
[24] = target: PIK3CD (human) (UniProt O00329)
[25] = target: PRKG2 (human) (UniProt Q13237)
[26] = target: STK38L (human) (UniProt Q9Y2H1)
[27] = target: RIPK4 (human) (UniProt P57078)
[28] = target: TEC (human) (UniProt P42680)
Chain of TEC (human) (P42680 whole entry, looked up): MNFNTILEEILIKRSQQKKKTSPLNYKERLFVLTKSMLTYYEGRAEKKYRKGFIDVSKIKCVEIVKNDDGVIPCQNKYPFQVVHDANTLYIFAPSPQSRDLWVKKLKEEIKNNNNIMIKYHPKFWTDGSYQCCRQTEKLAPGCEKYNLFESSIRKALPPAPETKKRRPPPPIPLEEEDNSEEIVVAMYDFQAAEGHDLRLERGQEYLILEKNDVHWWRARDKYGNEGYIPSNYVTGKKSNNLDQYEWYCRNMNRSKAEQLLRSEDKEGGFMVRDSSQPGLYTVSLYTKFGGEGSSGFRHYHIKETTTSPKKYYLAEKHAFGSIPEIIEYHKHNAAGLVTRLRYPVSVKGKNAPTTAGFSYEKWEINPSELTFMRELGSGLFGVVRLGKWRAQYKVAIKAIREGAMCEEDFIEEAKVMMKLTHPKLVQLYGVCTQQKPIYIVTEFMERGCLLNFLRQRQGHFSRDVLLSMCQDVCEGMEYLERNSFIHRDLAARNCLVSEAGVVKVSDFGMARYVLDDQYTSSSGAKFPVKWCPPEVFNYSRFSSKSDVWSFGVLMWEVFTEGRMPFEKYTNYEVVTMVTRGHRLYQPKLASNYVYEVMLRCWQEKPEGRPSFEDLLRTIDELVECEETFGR

[29] = target: NEK3 (human) (UniProt P51956)
[30] = target: TGFBR1 (human) (UniProt P36897)
Chain of TGFBR1 (human) (P36897 whole entry, looked up): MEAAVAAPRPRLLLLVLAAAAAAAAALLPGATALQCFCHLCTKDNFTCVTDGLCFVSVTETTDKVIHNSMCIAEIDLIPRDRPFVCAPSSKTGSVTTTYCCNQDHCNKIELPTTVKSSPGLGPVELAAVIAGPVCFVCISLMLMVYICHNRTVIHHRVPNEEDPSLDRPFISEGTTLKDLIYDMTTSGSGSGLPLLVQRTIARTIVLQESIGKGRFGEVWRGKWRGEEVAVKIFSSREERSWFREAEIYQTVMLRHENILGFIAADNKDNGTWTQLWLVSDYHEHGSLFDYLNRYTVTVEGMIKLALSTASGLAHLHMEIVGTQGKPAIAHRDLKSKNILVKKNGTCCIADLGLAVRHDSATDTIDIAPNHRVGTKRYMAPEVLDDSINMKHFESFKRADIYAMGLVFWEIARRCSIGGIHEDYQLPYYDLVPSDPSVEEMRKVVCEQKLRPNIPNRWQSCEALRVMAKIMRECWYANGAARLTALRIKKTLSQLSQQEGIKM

[31] = target: PRKAA2 (human) (UniProt P54646)
[32] = target: JAK1 JH2 pseudokinase (human) (UniProt P23458)
[33] = target: MAP3K4 (human) (UniProt Q9Y6R4)
[34] = target: OXSR1 (human) (UniProt O95747)
[35] = target: LYN (human) (UniProt P07948)
[36] = target: ADCK3 (human) (UniProt Q8NI60)
Chain of ADCK3 (human) (Q8NI60 whole entry, looked up): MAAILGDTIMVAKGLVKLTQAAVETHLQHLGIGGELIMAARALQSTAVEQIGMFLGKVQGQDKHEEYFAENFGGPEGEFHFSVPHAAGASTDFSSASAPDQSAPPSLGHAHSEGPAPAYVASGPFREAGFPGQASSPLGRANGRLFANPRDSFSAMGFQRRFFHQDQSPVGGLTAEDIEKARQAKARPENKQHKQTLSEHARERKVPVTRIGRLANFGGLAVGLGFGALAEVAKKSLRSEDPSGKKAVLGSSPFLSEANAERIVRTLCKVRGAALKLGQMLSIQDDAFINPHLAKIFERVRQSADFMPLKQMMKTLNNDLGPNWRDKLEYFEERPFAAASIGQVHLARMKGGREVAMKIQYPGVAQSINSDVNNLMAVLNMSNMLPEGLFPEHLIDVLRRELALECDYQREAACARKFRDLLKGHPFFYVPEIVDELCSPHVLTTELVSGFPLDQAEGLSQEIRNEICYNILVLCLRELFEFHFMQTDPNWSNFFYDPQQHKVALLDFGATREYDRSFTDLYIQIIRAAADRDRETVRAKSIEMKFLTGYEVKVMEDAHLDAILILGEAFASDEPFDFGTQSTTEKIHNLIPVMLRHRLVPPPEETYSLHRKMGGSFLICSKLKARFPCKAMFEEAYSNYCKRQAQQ

[37] = target: IRAK3 (human) (UniProt Q9Y616)
Chain of IRAK3 (human) (Q9Y616 whole entry, looked up): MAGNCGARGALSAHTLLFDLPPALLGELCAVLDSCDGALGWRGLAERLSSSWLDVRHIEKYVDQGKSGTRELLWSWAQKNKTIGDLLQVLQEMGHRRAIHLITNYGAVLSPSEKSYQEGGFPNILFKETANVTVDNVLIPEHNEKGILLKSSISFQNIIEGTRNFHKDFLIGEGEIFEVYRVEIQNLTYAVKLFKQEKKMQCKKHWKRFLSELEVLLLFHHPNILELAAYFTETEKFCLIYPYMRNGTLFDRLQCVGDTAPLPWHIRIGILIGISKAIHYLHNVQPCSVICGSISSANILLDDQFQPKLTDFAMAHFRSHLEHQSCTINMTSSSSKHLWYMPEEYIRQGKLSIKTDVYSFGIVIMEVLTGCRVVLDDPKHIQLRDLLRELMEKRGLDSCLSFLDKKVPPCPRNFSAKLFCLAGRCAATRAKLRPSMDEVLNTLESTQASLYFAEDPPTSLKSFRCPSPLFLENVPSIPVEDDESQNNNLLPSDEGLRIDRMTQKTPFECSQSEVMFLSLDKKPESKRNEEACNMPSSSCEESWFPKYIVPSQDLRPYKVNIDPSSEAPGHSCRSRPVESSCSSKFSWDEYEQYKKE

[38] = target: MYLK4 (human) (UniProt Q86YV6)
Chain of MYLK4 (human) (Q86YV6 whole entry, looked up): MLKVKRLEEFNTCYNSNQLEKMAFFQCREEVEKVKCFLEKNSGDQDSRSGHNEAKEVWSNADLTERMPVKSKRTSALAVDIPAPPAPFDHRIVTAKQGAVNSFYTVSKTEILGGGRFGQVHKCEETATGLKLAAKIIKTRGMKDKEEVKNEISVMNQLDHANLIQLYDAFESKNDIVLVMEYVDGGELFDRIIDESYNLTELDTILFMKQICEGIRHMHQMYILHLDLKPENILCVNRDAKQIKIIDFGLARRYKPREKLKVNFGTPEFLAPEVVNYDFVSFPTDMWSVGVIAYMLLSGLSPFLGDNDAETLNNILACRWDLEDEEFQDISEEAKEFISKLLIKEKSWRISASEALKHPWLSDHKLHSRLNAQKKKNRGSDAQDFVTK

[39] = target: STK25 (human) (UniProt O00506)
[40] = target: NEK7 (human) (UniProt Q8TDX7)
Chain of NEK7 (human) (Q8TDX7 whole entry, looked up): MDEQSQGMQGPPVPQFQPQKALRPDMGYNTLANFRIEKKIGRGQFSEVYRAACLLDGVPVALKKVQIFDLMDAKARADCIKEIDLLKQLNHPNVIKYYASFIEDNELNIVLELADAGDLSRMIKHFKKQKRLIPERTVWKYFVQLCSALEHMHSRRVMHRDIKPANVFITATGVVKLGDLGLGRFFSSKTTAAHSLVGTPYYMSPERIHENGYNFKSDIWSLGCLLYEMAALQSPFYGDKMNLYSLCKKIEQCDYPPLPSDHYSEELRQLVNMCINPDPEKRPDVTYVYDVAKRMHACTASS

Chain of CSK (human) (P41240 whole entry, looked up): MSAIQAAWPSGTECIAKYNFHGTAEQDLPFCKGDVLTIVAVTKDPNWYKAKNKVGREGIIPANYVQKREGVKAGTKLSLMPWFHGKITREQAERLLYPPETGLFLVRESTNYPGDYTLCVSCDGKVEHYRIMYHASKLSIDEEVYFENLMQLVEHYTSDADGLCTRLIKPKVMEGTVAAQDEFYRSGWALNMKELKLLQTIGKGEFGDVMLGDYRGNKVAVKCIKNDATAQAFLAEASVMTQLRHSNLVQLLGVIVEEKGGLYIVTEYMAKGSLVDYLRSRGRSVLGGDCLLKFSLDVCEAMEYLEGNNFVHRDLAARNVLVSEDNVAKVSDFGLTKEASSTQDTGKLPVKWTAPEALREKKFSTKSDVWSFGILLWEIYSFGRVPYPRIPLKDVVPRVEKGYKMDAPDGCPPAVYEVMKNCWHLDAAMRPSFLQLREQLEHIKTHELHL

Structure (SMILES) | kinase still bound, per cent of control [1] [%] | kinase still bound, per cent of control [2] [%] | kinase still bound, per cent of control [3] [%] | kinase still bound, per cent of control [4] [%] | kinase still bound, per cent of control [5] [%] | kinase still bound, per cent of control [6] [%] | kinase still bound, per cent of control [7] [%] | kinase still bound, per cent of control [8] [%] | kinase still bound, per cent of control [9] [%] | kinase still bound, per cent of control [10] [%] | kinase still bound, per cent of control [11] [%] | kinase still bound, per cent of control [12] [%] | kinase still bound, per cent of control [13] [%] | kinase still bound, per cent of control [14] [%] | kinase still bound, per cent of control [15] [%] | kinase still bound, per cent of control [16] [%] | kinase still bound, per cent of control [17] [%] | kinase still bound, per cent of control [18] [%] | kinase still bound, per cent of control [19] [%] | kinase still bound, per cent of control [20] [%] | other results
CCCS(=O)(=O)Nc1ccc(F)c(C(=O)c2c[nH]c3ncc(Cl)cc23)c1F | 2.7 | 65 | 79 | 100 | 64 | 75 | 100 | 0 | 100 | 86 | 100 | 100 | 88 | 100 | 60 | 100 | 100 | 96 | 86 | 68 | kinase still bound, per cent of control [21]: 80%; kinase still bound, per cent of control [22]: 100%; kinase still bound, per cent of control [23]: 0.05%; kinase still bound, per cent of control [24]: 84%; kinase still bound, per cent of control [25]: 93%; kinase still bound, per cent of control [26]: 71%; kinase still bound, per cent of control [27]: 89%; kinase still bound, per cent of control [28]: 100%; kinase still bound, per cent of control [29]: 69%; kinase still bound, per cent of control [30]: 60%; kinase still bound, per cent of control [31]: 46%; kinase still bound, per cent of control [32]: 100%; kinase still bound, per cent of control [33]: 92%; kinase still bound, per cent of control [34]: 24%; kinase still bound, per cent of control [35]: 24%; kinase still bound, per cent of control [36]: 92%; kinase still bound, per cent of control [37]: 26%; kinase still bound, per cent of control [38]: 15%; kinase still bound, per cent of control [39]: 53%; kinase still bound, per cent of control [40]: 59%
N#C/C(=C1/Nc2ccccc2S1)c1ccnc(NCCc2cccnc2)n1 | 88 | 100 | 100 | 100 | 32 | 93 | 84 | 6.8 | 81 | 92 | 100 | 100 | 93 | 92 | 6.2 | 100 | 70 | 46 | 100 | 89 | kinase still bound, per cent of control [21]: 34%; kinase still bound, per cent of control [22]: 86%; kinase still bound, per cent of control [23]: 2.4%; kinase still bound, per cent of control [24]: 78%; kinase still bound, per cent of control [25]: 81%; kinase still bound, per cent of control [26]: 100%; kinase still bound, per cent of control [27]: 8%; kinase still bound, per cent of control [28]: 92%; kinase still bound, per cent of control [29]: 58%; kinase still bound, per cent of control [30]: 100%; kinase still bound, per cent of control [31]: 100%; kinase still bound, per cent of control [32]: 2.6%; kinase still bound, per cent of control [33]: 100%; kinase still bound, per cent of control [34]: 62%; kinase still bound, per cent of control [35]: 100%; kinase still bound, per cent of control [36]: 91%; kinase still bound, per cent of control [37]: 38%; kinase still bound, per cent of control [38]: 16%; kinase still bound, per cent of control [39]: 60%; kinase still bound, per cent of control [40]: 84%
O=c1[nH]c2ccccc2n1C1CCN(Cc2ccc(-c3nc4cc5[nH]cnc5cc4nc3-c3ccccc3)cc2)CC1 | 93 | 100 | 94 | 59 | 100 | 100 | 100 | 84 | 100 | 82 | 100 | 81 | 100 | 100 | 76 | 100 | 99 | 91 | 93 | 100 | kinase still bound, per cent of control [21]: 100%; kinase still bound, per cent of control [22]: 88%; kinase still bound, per cent of control [23]: 65%; kinase still bound, per cent of control [24]: 51%; kinase still bound, per cent of control [25]: 91%; kinase still bound, per cent of control [26]: 82%; kinase still bound, per cent of control [27]: 87%; kinase still bound, per cent of control [28]: 100%; kinase still bound, per cent of control [29]: 84%; kinase still bound, per cent of control [30]: 100%; kinase still bound, per cent of control [31]: 95%; kinase still bound, per cent of control [32]: 79%; kinase still bound, per cent of control [33]: 78%; kinase still bound, per cent of control [34]: 81%; kinase still bound, per cent of control [35]: 72%; kinase still bound, per cent of control [36]: 100%; kinase still bound, per cent of control [37]: 100%; kinase still bound, per cent of control [38]: 64%; kinase still bound, per cent of control [39]: 97%; kinase still bound, per cent of control [40]: 82%
